Test results published in ChEMBL document CHEMBL1131934, “The design of non-peptide human bradykinin B2 receptor antagonists employing the benzodiazepine peptidomimetic scaffold” (Bioorg Med Chem Lett, 1999).

Target: T1, B2 bradykinin receptor (Homo sapiens, UniProt P30411)
T1 sequence (P30411 whole entry): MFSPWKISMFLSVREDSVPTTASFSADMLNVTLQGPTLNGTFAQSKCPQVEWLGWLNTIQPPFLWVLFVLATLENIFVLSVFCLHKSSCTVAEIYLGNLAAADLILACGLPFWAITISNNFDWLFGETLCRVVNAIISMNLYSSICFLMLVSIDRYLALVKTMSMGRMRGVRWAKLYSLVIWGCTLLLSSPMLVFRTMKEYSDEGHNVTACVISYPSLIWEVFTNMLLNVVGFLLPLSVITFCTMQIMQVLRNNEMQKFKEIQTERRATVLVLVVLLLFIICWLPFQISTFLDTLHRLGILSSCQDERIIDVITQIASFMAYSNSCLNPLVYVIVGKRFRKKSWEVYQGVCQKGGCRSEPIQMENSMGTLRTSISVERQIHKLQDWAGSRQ
Assay: Binding affinity towards human bradykinin B2 receptor (membranes from Cos-7 cells expressing human B2 receptor) using [3H]-BK as radioligand
Format: cell membranes
Conditions: not given

Row | Structure (SMILES) | Ki
1 | O=C(O)CN1C(=O)C(Cc2ccccc2)N=C(c2ccccc2)c2ccccc21 (centres undefined) | > 100 µM
2 | Nc1cccc(CN2C(=O)C(Cc3ccccc3)N=C(c3ccccc3)c3ccccc32)c1 (centres undefined) | > 100 µM
3 | NC(N)=Nc1cccc(CN2C(=O)C(Cc3ccccc3)N=C(c3ccccc3)c3ccccc32)c1 (centres undefined) | 8.9 µM
4 | NC(N)=Nc1cccc(CN2C(=O)[C@H](Cc3ccccc3)N=C(c3ccccc3)c3ccccc32)c1 | 15.8 µM
5 | N=C(N)Nc1cccc(CN2C(=O)[C@@H](Cc3ccccc3)N=C(c3ccccc3)c3ccccc32)c1 | 11.9 µM
6 | N=C(N)NCCCCN1C(=O)C(Cc2ccccc2)N=C(c2ccccc2)c2ccccc21 (centres undefined) | 21.3 µM
7 | N=C(N)Nc1ccc(N2C(=O)C(Cc3ccccc3)N=C(c3ccccc3)c3ccccc32)cc1 (centres undefined) | 9.2 µM
8 | O=C1Nc2ccccc2C(c2ccccc2)=NC1Cc1ccccc1 (centres undefined) | > 100 µM

Target: T2, B2 bradykinin receptor (Homo sapiens) (UniProt P30411)
T2 sequence (whole entry): T1 sequence (P30411 whole entry)
Assay: Binding affinity towards human bradykinin B2 receptor (membranes from Cos-7 cells expressing human B2 receptor) using [3H]BK as radioligand
Format: cell membranes
Conditions: concentration not given here

Row | Structure (SMILES) | inhibition
9 | NCCCCN1C(=O)C(Cc2ccccc2)N=C(c2ccccc2)c2ccccc21 (centres undefined) | 26%
